Data taken from US9849489B2, “Passive sampling devices” (priority 2015, dated 2017).
Counter-ions that a name gives are not always drawn.

assay: stability of 17 infused compounds in stored wristbands; format: physicochemical; conditions: RSD across all time and temperature samples (−20° C., 4° C., 30° C.)
Method: In another example, the stability of wristbands infused with 17 compounds of varied physiochemistry was studied for various combinations of times and temperatures. […] Twelve wristbands underwent solvent extraction and analysis immediately following infusion. The remaining wristbands were divided into three groups and one group of wristbands was stored at each of −20° C., 4° C., and 30° C. Four wristbands from each temperature group underwent solvent extraction and analysis after 7 days and after 28 days. Four wristbands from the −20° C. and 4° C. temperature groups underwent solvent extraction and analysis after 14 days. This stability study is ongoing and will span 2 years.

Point of comparison: [2H]c1c([2H])c([2H])c2c(c1[2H])C(=O)c1c([2H])c([2H])c([2H])c([2H])c1C2=O [Anthraquinone-d8, reference compound], “Overall RSD from entire study to 28 days” value 14%. Against it:
- O=P(OC(CCl)CCl)(OC(CCl)CCl)OC(CCl)CCl [TCDPP, 1,3-dichloro-2-propyl phosphate] — the same, 14%
- CCOP(=S)(OCC)Oc1nc(Cl)c(Cl)cc1Cl [chlorpyrifos] — higher, 24%
- [2H]c1c([2H])c([2H])c2c(c1[2H])-c1c([2H])c([2H])c([2H])c([2H])c1C2([2H])[2H] [fluorene-d10, reference compound] — higher, 16%
- CCCSP(=O)(OCC)SCCC [prophos/ethoprophos] — lower, 11%
- O=S1(=O)OCC2C(CO1)C1(Cl)C(Cl)=C(Cl)C2(Cl)C1(Cl)Cl (stereo not drawn) [endosulfan sulfate] — lower, 10%
- O=P(Oc1ccccc1)(Oc1ccccc1)Oc1ccccc1 [triphenyl phosphate] — lower, 12%
- [2H]c1c([2H])c(-c2cc(Cl)c(Cl)c(Cl)c2Cl)c([2H])c(Cl)c1Cl [PCB-156-d3, reference compound] — higher, 50%
- [2H]c1c([2H])c(Oc2ccc(Cl)cc2O)c(Cl)c([2H])c1Cl [triclosan-d3, reference compound] — lower, 11%
- Brc1ccc(Oc2ccc(Br)cc2Br)c(Br)c1 [PBDE 47] — higher, 37%
- [2H]c1c([2H])c2c([2H])c([2H])c3c([2H])c([2H])c([2H])c4c([2H])c([2H])c(c1[2H])c2c34 [pyrene-d10, reference compound] — higher, 32%
- Brc1ccc(Oc2cc(Br)c(Br)cc2Br)c(Br)c1 [PBDE 99] — higher, 43%
- Brc1cc(Br)c(Oc2cc(Br)c(Br)cc2Br)c(Br)c1 [PBDE 154] — higher, 51%
- [2H]c1c([2H])c([2H])c(-c2c(Cl)c(Cl)cc(Cl)c2Cl)c([2H])c1[2H] [PCB-65-d5, reference compound] — higher, 37%
- [2H]c1c([2H])c([2H])c(-c2c(Cl)c(Cl)c(Cl)c(Cl)c2Cl)c([2H])c1[2H] [PCB-116-d5, reference compound] — higher, 44%
- O=C1C2CC3C1C1(Cl)C(Cl)C4(Cl)C2C3C1(Cl)C4(Cl)Cl (stereo not drawn) [endrin Ketone] — lower, 8%

same assay, conditions: RSD of concentration (ng/mL), extraction immediately following infusion

Point of comparison: [2H]c1c([2H])c(-c2cc(Cl)c(Cl)c(Cl)c2Cl)c([2H])c(Cl)c1Cl [PCB-156-d3, reference compound], “Beginning RSD from starting time point” value 53%. Against it:
- O=P(OC(CCl)CCl)(OC(CCl)CCl)OC(CCl)CCl [TCDPP, 1,3-dichloro-2-propyl phosphate] — lower, 10%
- CCOP(=S)(OCC)Oc1nc(Cl)c(Cl)cc1Cl [chlorpyrifos] — lower, 19%
- [2H]c1c([2H])c([2H])c2c(c1[2H])-c1c([2H])c([2H])c([2H])c([2H])c1C2([2H])[2H] [fluorene-d10, reference compound] — lower, 14%
- CCCSP(=O)(OCC)SCCC [prophos/ethoprophos] — lower, 8%
- O=S1(=O)OCC2C(CO1)C1(Cl)C(Cl)=C(Cl)C2(Cl)C1(Cl)Cl (stereo not drawn) [endosulfan sulfate] — lower, 8%
- [2H]c1c([2H])c([2H])c2c(c1[2H])C(=O)c1c([2H])c([2H])c([2H])c([2H])c1C2=O [Anthraquinone-d8, reference compound] — lower, 8%
- O=P(Oc1ccccc1)(Oc1ccccc1)Oc1ccccc1 [triphenyl phosphate] — lower, 6%
- [2H]c1c([2H])c(Oc2ccc(Cl)cc2O)c(Cl)c([2H])c1Cl [triclosan-d3, reference compound] — lower, 9%
- Brc1ccc(Oc2ccc(Br)cc2Br)c(Br)c1 [PBDE 47] — lower, 37%
- [2H]c1c([2H])c2c([2H])c([2H])c3c([2H])c([2H])c([2H])c4c([2H])c([2H])c(c1[2H])c2c34 [pyrene-d10, reference compound] — lower, 27%
- Brc1ccc(Oc2cc(Br)c(Br)cc2Br)c(Br)c1 [PBDE 99] — lower, 46%
- Brc1cc(Br)c(Oc2cc(Br)c(Br)cc2Br)c(Br)c1 [PBDE 154] — the same, 53%
- [2H]c1c([2H])c([2H])c(-c2c(Cl)c(Cl)cc(Cl)c2Cl)c([2H])c1[2H] [PCB-65-d5, reference compound] — lower, 35%
- [2H]c1c([2H])c([2H])c(-c2c(Cl)c(Cl)c(Cl)c(Cl)c2Cl)c([2H])c1[2H] [PCB-116-d5, reference compound] — lower, 45%
- O=C1C2CC3C1C1(Cl)C(Cl)C4(Cl)C2C3C1(Cl)C4(Cl)Cl (stereo not drawn) [endrin Ketone] — lower, 4%

assay: stability of PAH-infused wristbands stored in PTFE bags at three temperatures; format: physicochemical; conditions: −20° C., 23° C. or 35° C., 72 hours
Method: Studies were carried out to examine whether PAHs would degrade after being sequestered by a wristband or whether field or handling conditions would influence exposure concentrations determined during wristband analysis.
The PAH-infused wristbands placed in PTFE storage bags were exposed to a temperature of −20° C. (in a walk-in freezer), 23° C. (ambient temperature), or 35° C. (in a drying oven) for 72 hours. Temperatures in each environment were monitored every 30 minutes using a temperature logger. Following the 72-hour exposure, the PAHs were extracted from the wristbands using solvent extraction and analyzed as described above.
In FIG. 14, the ratio of each analyte response divided by an internal standard response (for perylene-d12) are shown, because an error with surrogate recovery artificially inflated the variance across the three temperature exposures. […] The largest change among all PAH analytes was still less than 13% (fluorene-d10, freezer and ambient temperatures), so any changes in PAH concentrations were deemed negligible. Furthermore, potential changes in concentration would have been conserved since transportation was similar among wristbands within each temperature group. […] The standard deviations in FIG. 14 are the result of three replicates.

For [2H]c1c([2H])c([2H])c2c(c1[2H])-c1c([2H])c([2H])c([2H])c([2H])c1C2([2H])[2H] [fluorene-d10, reference compound], the “largest change in analyte response ratio between temperature groups” value was “less than 13%”.
